The text below walks through data of ChEMBL document CHEMBL3045592, “Studies of O,O-dimethyl α-(2,4-dichlorophenoxyacetoxy)ethylphosphonate (HW02) as a new herbicide. 1. Synthesis and herbicidal activity of HW02 and analogues as novel inhibitors of pyruvate dehydrogenase complex” (J Agric Food Chem, 2011).

pIC50: −log10 of the molar value. A value given as a limit tells only on which side of the number the result lay.

The test system of assay [1] is Medicago sativa. The assay is described as follows: Post-emergence herbicidal activity against Medicago sativa (alfalfa) assessed as growth inhibition at 1500 ai g/ha after 20 days by green house test. The class given is functional.
Assay [2] deals with Medicago sativa. The assay is described as follows: Pre-emergence herbicidal activity against Medicago sativa (alfalfa) assessed as growth inhibition at 1500 ai g/ha after 20 days by green house test. The class given is functional.
Assay [3] concerns Brassica rapa subsp. oleifera. The assay is described as follows: Post-emergence herbicidal activity against Brassica rapa subsp. oleifera Si Yue Man assessed as growth inhibition at 1500 ai g/ha after 20 days by green house test. The assay is classed as functional.
Assay [4] relates to Amaranthus retroflexus. In words: Post-emergence herbicidal activity against Amaranthus retroflexus assessed as growth inhibition at 1500 ai g/ha after 20 days by green house test. The class given is functional.
The test system of assay [5] is Cucumis sativus. The assay is described as follows: Herbicidal activity against Cucumis sativus Jin 4 (cucumber) assessed as inhibition of stem growth after 3 days. The class given is functional, organism-based. Particulars: Jin 4, 72 h.
The subject of assay [6] is Echinochloa crus-galli. In words: Post-emergence herbicidal activity against Echinochloa crus-galli (barnyard grass) assessed as growth inhibition at 1500 ai g/ha after 20 days by green house test. The class given is functional.
The subject of assay [7] is Amaranthus retroflexus. In words: Pre-emergence herbicidal activity against Amaranthus retroflexus assessed as growth inhibition at 1500 ai g/ha after 20 days by green house test. The assay is classed as functional.
For assay [8], the system named is Echinochloa crus-galli. The assay is described as follows: Pre-emergence herbicidal activity against Echinochloa crus-galli (barnyard grass) assessed as growth inhibition at 1500 ai g/ha after 20 days by green house test. The class given is functional.
The subject of assay [9] is Digitaria sanguinalis. The assay is described as follows: Post-emergence herbicidal activity against Digitaria sanguinalis (hairy crabgrass) assessed as growth inhibition at 1500 ai g/ha after 20 days by green house test. The class given is functional.
Assay [10] relates to Digitaria sanguinalis. In words: Pre-emergence herbicidal activity against Digitaria sanguinalis (hairy crabgrass) assessed as growth inhibition at 1500 ai g/ha after 20 days by green house test. The class given is functional.
Assay [11] deals with Cucumis sativus. In words: Herbicidal activity against Cucumis sativus Jin 4 (cucumber) assessed as inhibition of root growth after 3 days. The class given is functional, organism-based. Particulars: Jin 4, 72 h.
In assay [12] the test system is Brassica rapa subsp. oleifera. In words: Pre-emergence herbicidal activity against Brassica rapa subsp. oleifera Si Yue Man assessed as growth inhibition at 1500 ai g/ha after 20 days by green house test. The class given is functional.

The term pIC50 denotes −log10 of the IC50, conventionally taken in molar units. Consider `COP(=O)(OC)C(OC(=O)COc1ccc(Cl)cc1Cl)c1cccc([N+](=O)[O-])c1` (centres undefined), for which the “growth inhibition (GI)” value was 90% with Medicago sativa [1]; 90% in the assay with Medicago sativa [2]; 90% in [3]; 90% in the assay with Amaranthus retroflexus [4]; “<=50%” in the assay with Echinochloa crus-galli [6]; 90% in the assay with Amaranthus retroflexus [7]. The “growth inhibition (GI)” value with Echinochloa crus-galli [8] is recorded as 50%; in the assay with Digitaria sanguinalis [9], “<=50%”; in the assay with Digitaria sanguinalis [10] it was “<=50%”; in assay [12], 90%. Further, the negative logarithm of the IC50 (pIC50) in the assay on Cucumis sativus [5] is 5.30; in the assay with Cucumis sativus [11], 8.47.

As for `CCCOP(=O)(OCCC)C(OC(=O)C(C)Oc1ccc(Cl)cc1Cl)c1ccccc1Cl` (centres undefined), the pIC50 in the assay with Cucumis sativus [5] is 3.79; in the assay on Cucumis sativus [11], 4.92.

Regarding `COP(=O)(OC)C(OC(=O)C(C)Oc1ccc(Cl)cc1Cl)c1ccccc1` (centres undefined), the negative-log IC50 (pIC50) in the assay on Cucumis sativus [5] is 4.52.

As to `CCOP(=O)(OCC)C(C)OC(=O)C(C)Oc1ccc(Cl)cc1Cl` (centres undefined), in the assay on Cucumis sativus [11], the pIC50 was 5.97.

For `CCCC(OC(=O)COc1ccc(Cl)cc1Cl)P(=O)(OC)OC` (centres undefined), the results for the pIC50 in the assay on Cucumis sativus [5] and in the assay with Cucumis sativus [11] were 5.03 and 8.12, respectively.

On to `CCCC(OC(=O)C(C)Oc1ccc(Cl)cc1Cl)P(=O)(OC)OC` (centres undefined), for which the figures for the negative-log IC50 (pIC50) with Cucumis sativus [5] and in the assay with Cucumis sativus [11] were 4.86 and 5.53, respectively.

Take `CCOP(=O)(OCC)C(OC(=O)COc1ccc(Cl)cc1Cl)c1ccccc1` (centres undefined): the negative logarithm of the IC50 (pIC50) with Cucumis sativus [5] was 3.96; with Cucumis sativus [11], 7.31.

`CCCOP(=O)(OCCC)C(C)OC(=O)C(C)Oc1ccc(Cl)cc1Cl` (centres undefined): the results for the negative-log IC50 (pIC50) with Cucumis sativus [5] and in the assay on Cucumis sativus [11] were 4.74 and 5.61, respectively.

Consider `CCOP(=O)(OCC)C(OC(=O)COc1ccc(Cl)cc1Cl)c1ccccc1Cl` (centres undefined), for which the pIC50 with Cucumis sativus [11] is 5.83.

Take `CCOP(=O)(OCC)C(CC)OC(=O)COc1ccc(Cl)cc1Cl` (centres undefined): the pIC50 was 4.59 in the assay on Cucumis sativus [5] and 6.51 in the assay with Cucumis sativus [11].

On to `CCC(OC(=O)COc1ccc(Cl)cc1Cl)P(=O)(OC)OC` (centres undefined), for which the “growth inhibition (GI)” value in the assay on Medicago sativa [1] is listed as 90%; in the assay on Medicago sativa [2], 90%; in [3], 90%; with Amaranthus retroflexus [4], 90%; in the assay on Echinochloa crus-galli [6] it was 50%; in the assay with Amaranthus retroflexus [7], 90%. The “growth inhibition (GI)” value in the assay with Echinochloa crus-galli [8] worked out at 75%; with Digitaria sanguinalis [9], 50%; with Digitaria sanguinalis [10], 75%; in assay [12] it was 90%. Further, the values for the negative logarithm of the IC50 (pIC50) in the assay with Cucumis sativus [5] and with Cucumis sativus [11] were 4.85 and 6.49, respectively.

As to `CCOP(=O)(COC(=O)COc1ccc(Cl)cc1Cl)OCC`, the pIC50 in the assay with Cucumis sativus [5] is 4.87.

Take `COP(=O)(OC)C(C)OC(=O)C(C)Oc1ccc(Cl)cc1Cl` (centres undefined): the negative-log IC50 (pIC50) in the assay with Cucumis sativus [5] is 5.17; in the assay with Cucumis sativus [11], 5.85.

Turning to `CCCOP(=O)(OCCC)C(OC(=O)C(C)Oc1ccc(Cl)cc1Cl)c1ccccc1` (centres undefined), the pIC50 with Cucumis sativus [5] was 4.35; with Cucumis sativus [11], 5.34.

As for `COP(=O)(OC)C(OC(=O)COc1ccc(F)cc1)c1cccc([N+](=O)[O-])c1` (centres undefined), the “growth inhibition (GI)” value is on record as 50% in the assay on Medicago sativa [1]; 75% in the assay on Medicago sativa [2]; 50% in assay [3]; 75% with Amaranthus retroflexus [4]; 50% in the assay with Echinochloa crus-galli [6]; 75% with Amaranthus retroflexus [7]. Further, the “growth inhibition (GI)” value with Echinochloa crus-galli [8] was 50%; in the assay on Digitaria sanguinalis [9], 50%; in the assay on Digitaria sanguinalis [10] it was 90%; in [12] it was “<=50%”.
